Source: patent US10682413B2, “Pharmaceutical forms of diazabicyclooctane derivatives and process for producing the same” (Fedora Pharmaceuticals Inc., priority 2017, dated 2020)

Experiment: Decomposition of Compound (I) in aqueous solutions
Type: physicochemical
Excerpt: The present application is directed to a pharmaceutical composition of Compound (I) suitable for parenteral administration. […] Applicant discovered a lyophilisate formulation comprising a sugar and Compound (I) to afford an amorphous lyophilisate suitable for intravenous administration.

NCCONC(=O)[C@@H]1CC[C@@H]2CN1C(=O)N2OS(=O)(=O)O [Compound (I), (2S, 5R)—N-(2-aminoethoxy)-7-oxo-6-(sulfooxy)-1,6-diazabicyclo[3.2.1]octane-2-carboxamide]
stability in aqueous solutions: undergoes decomposition and dimerization in aqueous solutions
